Assay results as given in ChEMBL document CHEMBL3045221, “A 2D image-based approach for modelling some glycogen synthase kinase 3 inhibitors” (Med Chem Res, 2007).

target: Glycogen synthase kinase-3 beta (Homo sapiens, UniProt P49841); type: cell-based, Sf9
Sequence (P49841 whole entry): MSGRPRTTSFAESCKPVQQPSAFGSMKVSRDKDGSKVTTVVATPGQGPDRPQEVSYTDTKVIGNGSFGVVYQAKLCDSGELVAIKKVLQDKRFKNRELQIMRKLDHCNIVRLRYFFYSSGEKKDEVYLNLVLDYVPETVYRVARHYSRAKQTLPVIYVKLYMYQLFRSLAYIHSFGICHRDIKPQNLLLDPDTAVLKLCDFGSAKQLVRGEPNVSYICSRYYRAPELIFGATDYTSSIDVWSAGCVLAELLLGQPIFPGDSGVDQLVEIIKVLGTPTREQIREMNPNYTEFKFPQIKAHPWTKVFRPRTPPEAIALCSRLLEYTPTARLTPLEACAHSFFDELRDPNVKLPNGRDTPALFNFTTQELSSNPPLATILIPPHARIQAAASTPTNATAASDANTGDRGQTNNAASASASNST
Description: Inhibition of GSK3beta (unknown origin) expressed in Sf9 cells using GS1 as substrate and [gamma32]ATP after 30 min by scinitllation counting

Row | Structure (SMILES) | IC50 | Ki
1 | O=C1NC(=O)C2=C1c1cn(c3ccccc13)CCOCCOCCOCCn1cc2c2ccccc21 [INDOLYLYLMALEIMIDE 2] | 21.9 nM | –
2 | CC(=O)O/N=C1/C(=C2/C(=O)Nc3cc(Cl)c(Cl)cc32)Nc2ccccc21 [INDIRUBIN 1] | 3.98 nM | –
3 | CN(C)CCNC(=O)c1ccc(/C=N/Nc2ncnc3c2cnn3-c2cccc3[nH]cnc23)cc1 [PYRAZOLOPYRIMIDINE 1] | 1.58 nM | –
4 | O=C1NC(=O)C(c2cncc3ccoc23)=C1c1cn2c3c(cccc13)CN(C(=O)N1CCOCC1)CC2 [BISARYLMALEIMIDE 2] | 0.794 nM | –
5 | CN1CCN(c2cnc(NCCNc3ccc([N+](=O)[O-])c(N)n3)nc2-c2ccc(Cl)cc2Cl)C(=O)C1 | 3.98 nM | –
6 | O=C1Nc2ccc(Br)cc2/C1=C1/Nc2ccccc2/C1=N\O [INDIRUBIN 2] | 5.01 nM | –
7 | CC(=O)NC1=NC(=O)/C(=C2\CCNC(=O)c3c2cc(Br)n3C(C)=O)N1 [HYMENIALDISINE 2] | 129 nM | –
8 | O=C1NC(=O)C(c2cnc3cccnn23)=C1c1cn2c3c(cccc13)CN(C(=O)N1CCCCC1)CC2 [BISARYLMALEIMIDE 1] | 0.708 nM | –
9 | COc1ccc(Nc2nccc(-c3cnn4ncccc34)n2)cc1OC [PYRAZOLOPYRIDAZINE 2] | – | 12 nM
